In the first assay the target is T1, mGluR2 receptor (metabotropic glutamate receptor 2) (Homo sapiens, UniProt Q14416).
T1 construct: expressed in transfected cells
T1 sequence (Q14416 19-872, species assumed): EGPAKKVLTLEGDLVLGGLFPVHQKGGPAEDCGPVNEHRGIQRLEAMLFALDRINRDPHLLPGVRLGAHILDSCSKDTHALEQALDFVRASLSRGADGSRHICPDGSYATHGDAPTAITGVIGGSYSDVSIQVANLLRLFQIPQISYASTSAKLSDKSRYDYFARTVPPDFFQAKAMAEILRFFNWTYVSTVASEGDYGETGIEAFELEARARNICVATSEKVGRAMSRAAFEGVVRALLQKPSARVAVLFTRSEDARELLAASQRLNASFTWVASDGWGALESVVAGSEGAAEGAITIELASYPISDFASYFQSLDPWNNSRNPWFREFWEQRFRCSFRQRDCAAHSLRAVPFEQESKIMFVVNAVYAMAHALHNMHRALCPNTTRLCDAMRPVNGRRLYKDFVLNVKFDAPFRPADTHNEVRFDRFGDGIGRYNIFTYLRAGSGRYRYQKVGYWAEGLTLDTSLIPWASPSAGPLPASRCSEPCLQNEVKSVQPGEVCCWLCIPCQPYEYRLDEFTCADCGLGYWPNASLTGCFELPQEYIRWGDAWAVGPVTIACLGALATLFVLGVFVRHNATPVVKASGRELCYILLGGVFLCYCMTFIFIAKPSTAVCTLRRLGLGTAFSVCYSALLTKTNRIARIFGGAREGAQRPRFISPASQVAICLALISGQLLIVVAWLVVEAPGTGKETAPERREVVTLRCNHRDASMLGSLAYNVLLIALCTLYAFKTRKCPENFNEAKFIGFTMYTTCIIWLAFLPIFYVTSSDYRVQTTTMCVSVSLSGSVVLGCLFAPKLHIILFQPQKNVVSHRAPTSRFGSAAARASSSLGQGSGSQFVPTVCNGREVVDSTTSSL
The assay can be described thus: mGluR2 Potentiator Screen, FLIPR, EC10-EC20 glutamate challenge. The class given is cell-based. As to conditions: EC50 (uM). In outline:
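HEK cells stably co-expressing mGluR2 and Gα15, kept glutamine-free overnight, were loaded with Fluo-4 plus probenecid and GPT/pyruvate. Compounds (top 10 μM) were added ≥30 min before an EC10–EC20 glutamate challenge. Peak FLIPR fluorescence ratios were curve-fitted, excluding points above maximal effect, with maxima from on-plate standards.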
Take `CCC(=O)C1(c2ccccc2)CCN(Cc2nc3ccccc3n2C)CC1` [compound 73]: the EC50 amounted to 3.97 µM.

For the compound `CC(=O)C1(c2ccccc2)CCN(Cc2nc3ccccc3n2C)CC1` [compound 66], the EC50 was above 5.23 µM.

Staying with this assay, now noted: listed as 9; read-out: EC50.
Regarding `Cc1ccc2nc(CN3CCC(c4ccccc4F)CC3)n(C)c2c1` [Entry 279], the EC50 worked out at 2.17 µM.

The assay is the same for the next values; noted with them: mGluR2 potentiator screen, Table 7; read-out: EC50.
Regarding `FCCn1c(CN2CCC(c3cc(Cl)ccc3OCC3CCCO3)CC2)nc2ccccc21` (stereo not shown) [compound 210], the concentration for a half-maximal effect (EC50) is 1.04 µM. For the compound `FCn1c(CN2CCC(c3cc(Cl)ccc3OCC3CCCO3)CC2)nc2ccccc21` (stereo not shown) [compound 208], the EC50 stood at 4.13 µM. In the case of `CC(C)COc1ccc(Cl)cc1C1CCN(Cc2nc3ccccc3n2CF)CC1` [compound 177], the EC50 was found to be 3.47 µM.

Regarding `COc1ccc(OC)c(C2CCN(Cc3nc4ccccc4n3C)CC2)c1` [compound 163], the EC50 turned out to be 0.928 µM. `CC1CC1COc1ccc(Cl)cc1C1CCN(Cc2nc3ccccc3n2C2CC2)CC1` (stereo not shown) [compound 198]: the EC50 was 2.25 µM.

As to `Cn1c(CN2CCC(c3cccc4ccc(C(N)=O)cc34)CC2)nc2c(Br)cccc21` [compound 170], the half-maximal effective concentration (EC50) turned out to be 8.09 µM.

Turning to `Cn1c(CN2CCC(c3cccc(C(F)(F)F)c3)C(O)C2)nc2ccccc21` (stereo not shown) [compound 167], the 50% effective concentration (EC50) was found to be 4.38 µM.

Still in this assay, the particulars now being: read-out: EC50.
For the compound `Cn1c(CN2CCC(O)(c3ccc(Br)cc3)CC2)nc2ccccc21` [compound 75], the 50% effective concentration (EC50) is above 7.48 µM.

With `CC[C@H](C)COc1ccccc1C1CCN(Cc2nc3ccccc3n2C)CC1` [compound 94], the EC50 came out at 1.61 µM. Regarding `CC1=C(c2ccccc2)C(C)CN(Cc2nc3ccccc3n2C)C1` (stereo not shown) [compound 440], the concentration giving a half-maximal response (EC50) stood at 2.85 µM. In the case of `Cn1c(CN2CCC(c3ccccc3C(F)(F)F)CC2)nc2cc(Cl)ccc21` [compound 373], the EC50 is 1.75 µM.

Take `CN1CC2(CCN(Cc3nc4ccccc4n3C)CC2)c2cc(Br)ccc21` [Entry 104, 5-Bromo-1-methyl-1'-[(1-methyl-1H-benzimidazole-2-yl)methyl]-1,2-dihydrospiro[indole-3,4'-piperidine]]: the EC50 was determined as 1.41 µM.

Take `Cn1c(CN2CCC(c3ccc(C(F)(F)F)cc3)CC2)nc2cccc(F)c21` [compound 341]: the 50% effective concentration (EC50) is 0.633 µM.

Take `Cn1c(CN2CCC3(CC2)CN(C(=O)c2ccc(C#N)cc2)c2ccccc23)nc2ccccc21` [compound 56]: the EC50 worked out at 1.75 µM.

`Cn1c(CN2CCC(c3cc(C(F)(F)F)ccc3F)CC2)nc2c(F)cccc21` [compound 401]: the 50% effective concentration (EC50) worked out at 0.161 µM. Same read-out and setting: as for `COc1ccc(C(F)(F)F)cc1C1CCN(Cc2nc3cc(F)c(F)cc3n2C)CC1` [compound 321], the figure is 1.51 µM; as for `Cc1cc(C)cc(C2CCN(Cc3nc4ccccc4n3C)CC2)c1` [compound 302], 0.0374 µM; as for `CCCC(=O)N1CC2(CCN(Cc3nc4ccccc4n3C)CC2)c2ccccc21` [compound 64], 1.41 µM. Consider `Cn1c(CN2CCCC(c3ccccc3F)CC2)nc2ccccc21` (stereo not shown) [compound 306], for which the EC50 stood at 1.59 µM. Regarding `COc1ccc(Cl)cc1C1CCN(Cc2nc3ccccc3n2C2CC2)CC1` [compound 229], the concentration for a half-maximal effect (EC50) came to 0.357 µM. On to `COC(=O)CCCC(=O)N1CC2(CCN(Cc3nc4ccccc4n3C)CC2)c2cc(C)ccc21` [compound 32], for which the half-maximal effective concentration (EC50) was 1.85 µM. Regarding `COc1cc(C(F)(F)F)ccc1C1CCN(Cc2nc3c(F)cccc3n2C)CC1` [compound 400], the EC50 is 0.0436 µM.

As for `FC(F)(F)c1ccc(C2CCN(Cc3nc4ccccc4n3C3CC3)CC2)cc1` [compound 247], the EC50 was determined as 0.821 µM. For the compound `COC(=O)CCCCC(=O)N1CC2(CCN(Cc3nc4ccccc4n3C)CC2)c2ccccc21` [compound 51], the EC50 worked out at 7.13 µM. Still for that read-out and setting: the value for `CCC(CC)CN1CC2(CCN(Cc3nc4ccccc4n3C)CC2)c2cc(C)cc(C)c21` [compound 126] was 6.01 µM; that for “2-[4-(2-Methoxy-phenyl)-piperidin-1-ylmethyl]-1-methyl-1H-benzoimidazol-4-ylamine [Entry 264]” was 5.21 µM. Consider `CCOc1ccccc1C1CCN(Cc2nc3ccccc3n2C)CC1` [compound 100], for which the concentration giving a half-maximal response (EC50) turned out to be 2.91 µM. Take `FCCn1c(CN2CCC(c3cc(C(F)(F)F)ccc3F)CC2)nc2ccccc21` [compound 329]: the concentration giving a half-maximal response (EC50) came to 0.463 µM. Same read-out and setting: as for `Cn1c(CN2CCC(c3ccc(C(F)(F)F)cc3)CCC2=O)nc2ccccc21` (stereo not shown) [compound 290], the figure is 5.72 µM; as for `CCC(=O)N1CC2(CCN(Cc3nc4ccccc4n3C)CC2)c2cc(C)ccc21` [compound 23], 0.926 µM.

Regarding `Cn1c(CN2CCC(c3ccccc3C(F)(F)F)CC2)nc2cc(F)c(F)cc21` [compound 261], the EC50 is 2.31 µM. With `Cn1c(CN2CCC(c3cc(C(F)(F)F)ccc3F)CC2)nc2cc(C#N)ccc21` [compound 392], the EC50 was 0.441 µM.

For the compound `COc1ccc(Cl)cc1C1CCN(Cc2nc3c(Br)cccc3n2C)CC1` [compound 234], the EC50 was found to be 1.31 µM.

Take `Cc1ccc2nc(CN3CCC(c4ccccc4F)CC3)n(C)c2c1` [Entry 279]: the EC50 stood at 0.327 µM. With `C[C@@H]1CN(Cc2nc3ccccc3n2C)CC[C@@H]1c1ccc(Cl)cc1Cl` (relative stereo) [compound 468], the 50% effective concentration (EC50) is 0.0862 µM. On the same count and under the same terms, as for `FCCn1c(CN2CCC(c3ccccc3F)CC2)nc2ccccc21` [compound 241], the figure is 0.217 µM; as for `Cn1c(CN2CCC(c3ccc(Cl)cc3)CC2)nc2ccccc21` [compound 420], 0.664 µM; as for `Cn1c(CN2CCC3(CC2)CN(CC2CC2)c2ccc(Cl)cc23)nc2ccccc21` [compound 129], 2.51 µM. For `Cn1c(CN2CCC(c3ccccc3)CC2)nc2ccccc21` [compound 74], the EC50 was determined as 0.212 µM.

`FCn1c(CN2CCC(c3ccccc3F)CC2)nc2ccccc21` [compound 253]: the EC50 came to 0.116 µM. On to `Cn1c(CN2CCC(c3ccccc3F)CC2)nc2cc(C(N)=O)ccc21` [Entry 363, 2-((4-(2-Fluorophenyl)piperidin-1-yl)methyl)-1-methyl-1H-benzo[d]imidazol-5-carboxamide], for which the EC50 came to 2.02 µM. Same read-out and setting: the value for “2-(2-((4-(2-fluorophenyl)piperidin-1-yl)methyl)-1-methyl-1H-benzo[d]imidazol-5-yl)propan-2-ol [Entry 298]” was 2.53 µM; that for `Cn1c(CN2CCC3(CC2)CN(C(=O)C2CCC2)c2ccccc23)nc2ccccc21` [compound 60] was 2.22 µM. Same read-out and setting: as for `Cn1c(CN2CCC(c3ccc(F)c(Cl)c3)CC2)nc2ccccc21` [compound 443], the figure is 0.057 µM; as for `CC1CN(Cc2nc3ccccc3n2C)CC(C)C1(O)c1ccccc1` (stereo not shown) [compound 82], above 7.44 µM. The same measure, in the same setting: the value for “2-((4-(2-Fluorophenyl)piperidin-1-yl)methyl)-1-methyl-6-phenyl-1H-benzo[d]imidazole [Entry 276]” was 3.1 µM; that for `Cn1c(CN2CCC(c3cc(Cl)ccc3F)CC2)nc2cc(Cl)ccc21` [compound 380] was 1.73 µM; that for `Cn1c(CN2CCC(c3ccccc3O[C@H]3CCOC3)CC2)nc2ccccc21` [compound 101] was 5.72 µM.

As to `Cn1c(CN2CCC3(CC2)COc2ccccc23)nc2ccccc21` [compound 262], the EC50 turned out to be 1.17 µM. `COc1cc(F)ccc1C1CCN(Cc2nc3cccc(F)c3n2C)CC1` [compound 407]: the concentration for a half-maximal effect (EC50) is 0.167 µM. Consider `Cn1c(CN2CCC(O)(c3cc(Br)cc(Br)c3)CC2)nc2ccccc21` [compound 68], for which the half-maximal effective concentration (EC50) was 1.24 µM. In the case of `Cn1c(CN2CCC(c3ccc(Cl)cc3F)CC2)nc2ccccc21` [compound 451], the EC50 turned out to be 0.00757 µM.

On to `COC(=O)CCC(=O)N1CC2(CCN(Cc3nc4ccccc4n3C)CC2)c2cc(Cl)ccc21` [compound 42], for which the EC50 was 3.23 µM. As for `Cn1c(CN2CCC(c3ccc(Cl)c(F)c3)CC2)nc2ccccc21` [compound 450], the EC50 amounted to 0.079 µM. As for `COc1cc(C(F)(F)F)ccc1C1CCN(Cc2nc3c(F)cccc3n2C)CC1` [compound 399], the concentration giving a half-maximal response (EC50) is below 0.0124 µM. `CCOc1ccc(Cl)cc1C1CCN(Cc2nc3ccccc3n2CF)CC1` [compound 226]: the concentration giving a half-maximal response (EC50) came out at 0.637 µM.

As to `Cn1c(CN2CCC(c3ccc(C(F)(F)F)cc3)CC2)nc2cc(C#N)ccc21` [compound 317], the EC50 amounted to 0.0907 µM. With `Cn1c(CN2CCC3(CC2)CN(C(=O)C2COc4ccccc4O2)c2ccccc23)nc2ccccc21` (stereo not shown) [compound 52], the EC50 turned out to be 1.39 µM. Take `Cn1c(CN2CCC(c3ccccc3F)CC2)nc2cc(CO)ccc21` [Entry 297, (2-((4-(2-Fluorophenyl)piperidin-1-yl)methyl)-1-methyl-1H-benzo[d]imidazol-5-yl)methanol]: the EC50 amounted to 0.169 µM.

With `COc1cccc(F)c1C1CCN(Cc2nc3ccccc3n2C)CC1` [compound 438], the EC50 came to 0.081 µM. For `CCCCN1CC2(CCN(Cc3nc4ccccc4n3C)CC2)c2cc(C)ccc21` [compound 139], the concentration giving a half-maximal response (EC50) turned out to be 1.97 µM. Same read-out and setting: the value for “2-((4-(2-Fluorophenyl)piperidin-1-yl)methyl)-3-methyl-3H-benzo[d]imidazole-5-carbonitrile [Entry 275]” was 2.62 µM; that for `COc1cc(C(F)(F)F)ccc1C1CCN(Cc2nc3cc(C#N)ccc3n2C)CC1` [compound 390] was 0.052 µM; that for `CC(C)COc1ccccc1C1CCN(Cc2nc3ccccc3n2C)CC1` [compound 96] was above 3.92 µM. `COc1ccccc1C1CCN(Cc2nc3ccccc3n2C)CC1C` (stereo not shown) [compound 292]: the concentration for a half-maximal effect (EC50) turned out to be 0.143 µM. For the compound `COCn1c(CN2CCC(c3cc(C(F)(F)F)ccc3OC)CC2)nc2ccccc21` [compound 320], the 50% effective concentration (EC50) was found to be 3.8 µM. `COCn1c(CN2CCC(c3ccc(C(F)(F)F)cc3OC)CC2)nc2ccccc21` [compound 358]: the EC50 worked out at 0.471 µM. For the compound `COc1ccccc1C1CCN(Cc2nc3cc(F)c(F)cc3n2C)CC1` [compound 258], the concentration for a half-maximal effect (EC50) came out at 0.0805 µM.

Consider `COc1ccc(-c2ccc3nc(CN4CCC(c5ccccc5F)CC4)n(C)c3c2)cn1` [compound 277], for which the concentration giving a half-maximal response (EC50) was 0.0446 µM. Turning to `COc1ccc(F)cc1C1CCN(Cc2nc3ccccc3n2C)CC1` [compound 300], the EC50 amounted to 0.0607 µM.

One may read the EC50 as the concentration needed to bring the measured effect to its halfway point.
